Experimental data as given in patent US9783551B2, “Pyranochromenyl phenol derivative, and pharmaceutical composition for treating metabolic syndrome or inflammatory disease” (GLACEUM, INC., priority 2013, dated 2017).

Legend:
db/db mice [1] = assay: Liver histology (H&E, perilipin antibody) of db/db mice after 6 weeks; assay type: in vivo, C57BLKS/J-db/db mice; conditions: administered for 6 weeks, compared with control group
Description: (§1) 5-week-old male C57BLKS/J-db/db mice (Central Lab. Animal Inc.) were purchased and acclimatized for 2 weeks, and then used in this experiment. Samples were exactly taken from the compounds prepared in Examples 4 and 15 of the present invention (Compounds 5 and 16) according to the administration dose and put into Falcon tubes, a 0.5% methyl cellulose aqueous solution stored refrigerated was placed at room temperature to allow the excipients to be warmed at room temperature, 16 ml of each of the excipients was added to a 50 ml Falcon tube, and a vortex mixer was used to primarily mix the ingredients in a soft manner, and then a suspension was obtained and homogenized by treating the sample for 3 minutes using a homogenizer (30,000 rpm, CPT-1600E, Kinemtica, Switzerland), and then ultrasonically treated for 30 minutes. The sample thus prepared was administered through oral gavage using a disposable plastic syringe equipped with a sonde once daily for 42 days (6 weeks).
The mouse to which Compound 16 had been administered for 6 weeks in this experiment was finally sacrificed and autopsied to collect a liver, the liver was excised and each stained with hematoxylin and eosin (H&E) and perilipin antibody, the stained tissue was observed using a microscope, and the results are shown in FIGS. 2 to 5. […]

PTP1B = PTP1B (Homo sapiens (Human), UniProt P18031); assay: Experiment of PTP1B inhibition (p-NPP dephosphorylation); assay type: biochemical; conditions: 2 mM p-NPP substrate, 30° C., 30 minutes
PTP1B, sequence (P18031 whole entry, species assumed): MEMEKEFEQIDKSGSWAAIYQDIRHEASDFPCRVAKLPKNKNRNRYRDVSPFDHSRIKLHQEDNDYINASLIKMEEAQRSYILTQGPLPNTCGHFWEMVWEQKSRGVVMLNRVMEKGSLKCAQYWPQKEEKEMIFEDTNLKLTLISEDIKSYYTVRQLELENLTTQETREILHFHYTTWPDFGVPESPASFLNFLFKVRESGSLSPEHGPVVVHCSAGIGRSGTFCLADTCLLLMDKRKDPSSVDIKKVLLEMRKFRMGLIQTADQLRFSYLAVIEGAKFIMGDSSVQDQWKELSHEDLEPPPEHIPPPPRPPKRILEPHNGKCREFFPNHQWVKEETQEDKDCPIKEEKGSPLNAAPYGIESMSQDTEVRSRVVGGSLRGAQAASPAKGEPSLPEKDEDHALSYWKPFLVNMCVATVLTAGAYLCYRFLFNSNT
From the text: With respect to PTP1B, the degrees of inhibition (IC50 The half maximal inhibitory concentration) of glabridin, and compounds of Preparation Example 2 (Compound 1), Example 2 (Compound 3), Example 3 (Compound 4), Example 4 (Compound 5), Example 13 (Compound 14), Example 14 (Compound 15), Example 15 (Compound 16), Example 17 (Compound 18), Example 18 (Compound 19) and Example 20 (Compound 21) were compared to each other. For this purpose, the degree of inhibition activity for PTP1B was investigated by using 2 mM p-nitrophenyl phosphate (p-NPP) as a substrate to measure the dephosphorylation degree. First, PTP1B diluted with distilled water was reacted with 2 mM p-nitrophenyl phosphate {p-NPP, 0.1 M NaCl, 1 mM EDTA, 50 mM citrate pH 6.0, and 1 mM dithiothreitol (DTT)} and Compound 1 at various concentrations at 30° C. for 30 minutes, and then the reaction was terminated with a 1 N-sodium hydroxide (NaOH) solution. The absorbance of the samples thus prepared was measured to confirm the inhibition degree (IC50: The half maximal inhibitory concentration) for PTP1B activity according to the concentration of Compound 1. Even for glabridin, Compound 3, Compound 4, Compound 5, Compound 14, Compound 15, Compound 16, Compound 18, Compound 19, and Compound 21, the same measurement was performed.

BV2 microglia cells = assay: BV2 cell NO assay (LPS-induced NO production, Griess reagent); assay type: cell-based; conditions: Mus musculus, BV-2, LPS 1 μg/ml, 24 hours
Description: (§2) After the pretreatment, 0.5 mg/ml of the MTT (Sigma, M2128) reagent was further added thereto. After the cells were cultured in a 5% CO2 incubator, the supernatant was discarded, 150 μl of DMSO was added and was shaken for 30 minutes, and an ELISA micro plate reader (Bio Rad Laboratories Inc., California, USA, Model 680) was used to measure the absorbance at a wavelength of 540 nm. All the experimental values were calculated as an average value of three repeated experimental values of the cell protection rate for the control group, and an experiment of suppressing the NO production for each compound was carried out at a concentration in which no cytotoxicity was shown.
After the reaction, an ELISA micro plate reader (Bio Rad Laboratories Inc., California, USA, Model 680) was used to measure the absorbance at a wavelength of 540 nm. The suppression rate was calculated as a difference in amount of NO produced between the control group and the experimental group, and as shown in the following Table 6 and FIG. 6, Compounds 4, 5, 15, 16, 18, and the like of the present invention were excellent in the effect of suppressing the production of NO, and the effect is also about 5 times to about 9 times better than that of glabridin.

DIO mice = assay: Anti-obesity effect for DIO mice (body weight); assay type: in vivo, C57BL/6 mice; conditions: Mus musculus, 672 h; 4 weeks, 150 mg/kg, oral gavage once daily
Description: Five-week-old female C57BL/6 mice (Narabio Co., Ltd.) were purchased and fed with only high-fat diet for at least 10 weeks to produce diet induced obesity ([…]) mice. Samples were exactly taken from Preparation Example 1 (glabridin) and the compounds of Examples of the present invention (Compounds 1 to 5, 7, 9, 11, 14 to 16, 21, and 23) according to the administration dose and put into Falcon tubes, 3 ml of a 0.5% methyl cellulose aqueous solution was added thereto and a vortex mixer was used to primarily mix the ingredients in a soft manner, and then a homogenizer (30,000 rpm, Ultra-Turrax® T10 Basic, IKA) was used to treat the sample for 3 minutes while 1.5 ml of a 0.5% methyl cellulose aqueous solution was added thereto. The sample thus prepared was administered through oral gavage using a disposable plastic syringe once daily for 28 days (4 weeks). The body weight was measured twice a week while the DIO mice were bred in this manner. Based on the data thus calculated, the anti-obesity effect (%) was calculated according to the equation defined as follows. Anti-Obesity Effect={(Body weight of control group)−(Body weight of experimental group)}/(Body weight of control group)×100

db/db mice [2] = assay: Anti-diabetic effects for db/db mice (glycosylated hemoglobin); assay type: in vivo, C57BLKS/J-db/db mice
Description: as §1
The glycosylated hemoglobin (HbA1c) was measured while the db/db mice were bred. The gyclosylated hemoglobin was measured at 2 days prior to group separation, 4 weeks after administration, and 6 weeks after administration, and was measured by fasting the mice for 4 hours on the measurement date, collecting blood from the caudal vein before each material was administered, and using a device for measuring glycosylated hemoglobin (SD A1cCare, SD Biosensor, Inc., Korea).

RAW264.7 macrophages = assay: RAW264.7 macrophage NO assay (LPS-induced NO production, Griess reagent); assay type: cell-based
Description: as §2, with “pretreatment,” for “pretreatment, 0.5 mg/ml of”, “reagent at a concentration of 0.5 mg/ml” for “reagent”, “incubator for 4 hours,” for “incubator,”
After the reaction, an ELISA micro plate reader (Bio Rad Laboratories Inc., California, USA, Model 680) was used to measure the absorbance at a wavelength of 540 nm. The suppression rate was calculated as a difference in amount of NO produced between the control group and the experimental group, and as shown in the following Table 7, Compounds 4, 5, 15, 16, 18, and the like of the present invention were excellent in the effect of suppressing the production of NO.

**Q.** With `CCCOc1ccc(C2COc3c(ccc4c3CCC(C)(C)O4)C2)c(O)c1` (stereo not drawn) [Compound 16, 3-(2-hydroxy-4-propoxyphenyl)-8,8-dimethyl-2,3,4,8,9,10-hexahydropyrano [2,3-f] chromene] as the compound, how does the “liver tissue observation by microscope” value (db/db mice [1]) read?
**A.** small and compact adipocytes

**Q.** And the IC50 (PTP1B)?
**A.** 1900 nM

**Q.** And the IC50 (BV2 microglia cells)?
**A.** 2300 nM

**Q.** And the inhibition in vivo at 150 mg/kg (DIO mice)?
**A.** 7%

**Q.** What about the “HbA1c (%) 4 weeks” value (db/db mice [2]; 4 weeks after administration, 300 mg/kg oral once daily) of the same compound?
**A.** 6.7%

**Q.** What about the “HbA1c (%) 6 weeks” value (db/db mice [2]; 6 weeks after administration, 300 mg/kg oral once daily) of the same compound?
**A.** 6.2%

**Q.** What about the “HbA1c (%) Before administration” value (db/db mice [2]; before administration, 300 mg/kg group) of the same compound?
**A.** 4.7%

**Q.** What about the IC50 (RAW264.7 macrophages; Mus musculus, RAW264.7, NO production, LPS 1 μg/ml, 24 hours) of the same compound?
**A.** 4400 nM

**Q.** What about the “effect of suppressing the production of NO” value (RAW264.7 macrophages; RAW264.7 macrophages, in words) of the same compound?
**A.** excellent
